The values that follow come from US20240368181A1, “QUINOXALINE DERIVATIVES AND USES THEREOF” (Black Diamond Therapeutics, Inc., priority 2021, published 2024).

Some results are limits rather than exact numbers.

Assay type in all cases: cell-based
Test [1] deals with SNU-16 (FGFR2-amplification) cells. Nature of the test: cell proliferation assay (CellTiterGlo), SNU-16 cells. Particulars: Homo sapiens, 72 hours. The text has this:
In some embodiments, the biological assay assess the ability of the compounds to inhibit cell proliferation.
In some embodiments, cells (e.g., SNU-16 (FGFR2-amplification) cells) may be suspended and dispensed in plates. In some embodiments, cells (e.g., UM-UC-14 (FGFR3-S249C) cells) may be suspended and dispensed in plates. In some embodiments, cells (e.g., DMS-114 (FGFR1 overexpression) cells) may by suspended and dispensed in plates. In some embodiments, cells (e.g., RT-112 (FGFR3-Tacc3 fusion) cells) may be suspended and dispensed in plates. In some embodiments, to determine the effect of the compounds of the present disclosure on cell proliferation, cells (e.g., SNU-16, UM-UC-14, DMS-114 and […] cells) may be incubated in the presence of vehicle control (e.g., DMSO) or a compound of the present disclosure at varying concentrations and the inhibition of cell growth may be determined by luminescent quantification (e.g., of intracellular ATP content using CellTiterGlo), according to the manufacturers protocol. In some embodiments, to determine the IC50 values, the vehicle-treated cells were normalized as viable cells and the growth was analyzed using a software (e.g., the CDD Vault software (Collaborative Drug Discovery, Burlingame, CA)).
Background: In ATP-based viability assays light output follows the ATP content of the culture.

Test [2] deals with DMS-114 (FGFR1 overexpression) cells. In words: cell proliferation assay (CellTiterGlo), DMS-114 cells. Particulars: Homo sapiens, DMS-114, 72 h. The method in brief:
(§1)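 Cells were incubated with vehicle (DMSO) or compound over a range of concentrations. Growth inhibition was read by CellTiterGlo luminescence of intracellular ATP. IC50 was derived after normalizing to vehicle-treated cells as viable.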

The subject of test [3] is RT-112 (FGFR3-Tacc3 fusion) cells. In words: cell proliferation assay (CellTiterGlo), RT-112 cells. Particulars: Homo sapiens, RT-112, RT112 cells, 72 hours. The method in brief: as §1
The test system of test [4] is UM-UC-14 (FGFR3-S249C) cells. Nature of the test: cell proliferation assay (CellTiterGlo), UM-UC-14 cells. Particulars: UMUC14, 72 h. The gist of the method:
as §1

By IC50 is commonly meant the midpoint of a concentration-inhibition curve. `Cc1nc2ccc(Oc3ccc4ncc(-c5cnn(CC(N)=O)c5)nc4c3Cl)cc2[nH]1` [Compound 326]: the IC50 is 20 to 100 nM in test [1], at least 400 nM in test [2], 100 to 400 nM in test [3] and 100 to 400 nM in test [4].
Consider `Cc1nc2ccc(Oc3ccc4ncc(-c5cnn(CC6CC7CC6CO7)c5)nc4c3Cl)cc2[nH]1` (stereo not drawn) [Compound 241], for which the 50% inhibitory concentration (IC50) was 20 to 100 nM in test [1], 100 to 400 nM in test [2], below 20 nM in test [3] and 20 to 100 nM in test [4].
For the compound `Cc1nc2ccc(Oc3ccc4ncc(-c5cnn(C[C@@H](C)O)c5)nc4c3Cl)c(F)c2[nH]1` [Compound 130], the half-maximal inhibitory concentration (IC50) is below 20 nM in test [1], 100 to 400 nM in test [2], below 20 nM in test [3] and below 20 nM in test [4].
Consider `Cc1nc2ccc(Oc3ccc4ncc(-c5cnn([C@@H]6C[C@H]7CC[C@@H](C6)N7)c5)nc4c3Cl)cc2[nH]1` [Compound 361], for which the half-maximal inhibitory concentration (IC50) in test [1] is 100 to 400 nM; in test [2], 100 to 400 nM; in test [3] it was 20 to 100 nM; in test [4], 20 to 100 nM.
Turning to `Cc1nc2ccc(Oc3ccc4ncc(-c5cnn(CC(=O)N6CCC6)c5)nc4c3Cl)cc2[nH]1` [Compound 319], the IC50 in test [1] is 20 to 100 nM; in test [2] it was at least 400 nM; in test [3], 20 to 100 nM; in test [4], 20 to 100 nM.
As to `Cc1nc2ccc(Oc3ccc4ncc(-c5cnn(C6CN(CC7COC7)C6)c5)nc4c3Cl)cc2[nH]1` [Compound 217], the concentration for half-maximal inhibition (IC50) in test [1] is 20 to 100 nM; in test [2], at least 400 nM; in test [3] it was 20 to 100 nM; in test [4], 20 to 100 nM.
Take `Cc1nc2ccc(Oc3ccc4ncc(-c5cnn(CCN6CCC6)c5)nc4c3Cl)cc2[nH]1` [Compound 239]: the 50% inhibitory concentration (IC50) in test [1], in test [2], in test [3] and in test [4] was at least 400 nM each time.
`Cc1nc2ccc(Oc3ccc4ncc(-c5cnn(CC(=O)O)c5)nc4c3Cl)cc2[nH]1` [Compound 269]: the IC50 in test [1], in test [2], in test [3] and in test [4] was at least 400 nM in each case.
As to `Cc1nc2ccc(Oc3ccc4ncc(-c5cnn(C6CN(c7cncc(F)c7)C6)c5)nc4c3Cl)cc2[nH]1` [Compound 196], the IC50 is 100 to 400 nM in test [1], at least 400 nM in test [2], 100 to 400 nM in test [3] and 100 to 400 nM in test [4].
As for `Cc1nc2ccc(Oc3ccc4ncc(-c5cnn(CC6CC(F)(F)C6)c5)nc4c3C3CCCOC3)cc2[nH]1` (stereo not drawn) [Compound 87], the concentration for half-maximal inhibition (IC50) in test [1], in test [2], in test [3] and in test [4] was at least 400 nM throughout.
As for `Cc1nc2ccc(Oc3ccc4ncc(-c5cnn([C@@H]6C[C@H]7CC[C@@H](C6)N7C)c5)nc4c3Cl)cc2[nH]1` [Compound 363], the IC50 in test [1] is 20 to 100 nM; in test [2], at least 400 nM; in test [3], 20 to 100 nM; in test [4] it was 20 to 100 nM.
As for `Cc1nc2ccc(Oc3ccc4ncc(-c5cnn(CC(=O)N6CCC(O)C6)c5)nc4c3Cl)cc2[nH]1` (stereo not drawn) [Compound 306], the IC50 in test [1] was 100 to 400 nM; in test [2], at least 400 nM; in test [3] it was 20 to 100 nM; in test [4], 100 to 400 nM.
With `Cc1nc2ccc(Oc3ccc4ncc(-c5cnn(C[C@@H]6CCN(C)C[C@H]6F)c5)nc4c3Cl)cc2[nH]1` [Compound 367], the half-maximal inhibitory concentration (IC50) in test [1] is 20 to 100 nM; in test [2] it was 100 to 400 nM; in test [3], below 20 nM; in test [4], 20 to 100 nM.
In the case of `Cc1nc2ccc(Oc3ccc4ncc(-c5cnn(C6CC(O)C6)c5)nc4c3Cl)cc2[nH]1` (stereo not drawn) [Compound 258], the IC50 in test [1] was 20 to 100 nM; in test [2], at least 400 nM; in test [3], 20 to 100 nM; in test [4], 20 to 100 nM.
In the case of `COC1CCN(CCn2cc(-c3cnc4ccc(Oc5ccc6nc(C)[nH]c6c5)c(Cl)c4n3)cn2)C1` (stereo not drawn) [Compound 260], the 50% inhibitory concentration (IC50) in test [1] fell in the range of 20 to 100 nM; in test [2] it was 100 to 400 nM; in test [3] it was 20 to 100 nM; in test [4] it was 20 to 100 nM.
For `Cc1nc2ccc(Oc3ccc4ncc(-c5cnn([C@H]6C[C@H](N7CCOCC7)C6)c5)nc4c3Cl)cc2[nH]1` [Compound 324], the IC50 was 20 to 100 nM in test [1], at least 400 nM in test [2], 20 to 100 nM in test [3] and 20 to 100 nM in test [4].
Turning to `Cc1nc2ccc(Oc3ccc4ncc(-c5cnn(CC6CC(F)(F)C6)c5)nc4c3C3=CCOC3)cc2[nH]1` [Compound 179], the half-inhibitory concentration (IC50) was below 20 nM in test [1], 100 to 400 nM in test [2], below 20 nM in test [3] and below 20 nM in test [4].
Turning to `Cc1nc2ccc(Oc3ccc4ncc(-c5cnn(CC6CCSCC6)c5)nc4c3Cl)cc2[nH]1` [Compound 377], the IC50 in test [1] was 20 to 100 nM; in test [2] it was at least 400 nM; in test [3], 20 to 100 nM; in test [4], 20 to 100 nM.
With `Cc1nc2ccc(Oc3ccc4ncc(-c5cnn(CCC(F)F)c5)nc4c3Cl)cc2[nH]1` [Compound 92], the IC50 in test [1] is 100 to 400 nM; in test [2], at least 400 nM; in test [3], 100 to 400 nM; in test [4] it was 100 to 400 nM.
For the compound `Cc1nc2ccc(Oc3ccc4ncc(-c5cnn(C6CC(N7CC(O)C7)C6)c5)nc4c3Cl)cc2[nH]1` (stereo not drawn) [Compound 309], the concentration for half-maximal inhibition (IC50) was 20 to 100 nM in test [1], 100 to 400 nM in test [2], 20 to 100 nM in test [3] and 20 to 100 nM in test [4].
As for `Cc1nc2ccc(Oc3ccc4ncc(-c5cnn(CC6(C)COC6)c5)nc4c3Cl)cc2[nH]1` [Compound 352], the half-maximal inhibitory concentration (IC50) in test [1], in test [2], in test [3] and in test [4] was at least 400 nM throughout.
Regarding `Cc1nc2ccc(Oc3ccc4ncc(-c5cnn(CC6OCC7(COC7)CO6)c5)nc4c3Cl)cc2[nH]1` [Compound 299], the concentration for half-maximal inhibition (IC50) in test [1] was 20 to 100 nM; in test [2], at least 400 nM; in test [3], 20 to 100 nM; in test [4] it was 20 to 100 nM.
As for `Cc1nc2ccc(Oc3ccc4ncc(-c5cnn([C@H]6CC7(C[C@@H](O)C7)C6)c5)nc4c3Cl)c(F)c2[nH]1` (stereo partly drawn) [Compound 127], the concentration for half-maximal inhibition (IC50) in test [1] was below 20 nM; in test [2] it was 100 to 400 nM; in test [3], below 20 nM; in test [4] it was below 20 nM.
In the case of `Cc1nc2ccc(Oc3ccc4ncc(-c5cnn(CCC6CCNCC6)c5)nc4c3Cl)cc2[nH]1` [Compound 304], the IC50 was 100 to 400 nM in test [1], at least 400 nM in test [2], 20 to 100 nM in test [3] and 20 to 100 nM in test [4].
With `Cc1nc2ccc(Oc3ccc4ncc(-c5cnn(C6CN(C7COC7)C6)c5)nc4c3Cl)cc2[nH]1` [Compound 237], the IC50 was 20 to 100 nM in test [1], 100 to 400 nM in test [2], below 20 nM in test [3] and 20 to 100 nM in test [4].
Regarding `C=CS(=O)(=O)N1CCC(Cn2cc(-c3cnc4ccc(Oc5ccc6nc(C)[nH]c6c5)c(Cl)c4n3)cn2)CC1` [Compound 384], the half-inhibitory concentration (IC50) in test [1], in test [2], in test [3] and in test [4] was at least 400 nM in each case.
Take `C=C(C)c1c(Oc2ccc3nc(C)[nH]c3c2)ccc2ncc(-c3cnn(CC4CC(F)(F)C4)c3)nc12` [Compound 231]: the concentration for half-maximal inhibition (IC50) in test [1] was 20 to 100 nM; in test [2], at least 400 nM; in test [3], 20 to 100 nM; in test [4], 20 to 100 nM.
`Cc1nc2ccc(Oc3ccc4ncc(-c5cnn(CC6CC(N7CCC7)C6)c5)nc4c3Cl)cc2[nH]1` (stereo not drawn) [Compound 291]: the IC50 in test [1] is 20 to 100 nM; in test [2] it was at least 400 nM; in test [3] it was 20 to 100 nM; in test [4], 20 to 100 nM.
Take `Cc1nc2ccc(Oc3ccc4ncc(-c5cnn(C6CC7COCC(C6)N7)c5)nc4c3Cl)cc2[nH]1` (stereo not drawn) [Compound 187]: the IC50 in test [1] is 20 to 100 nM; in test [2], at least 400 nM; in test [3] it was 20 to 100 nM; in test [4] it was 20 to 100 nM.
Turning to `Cc1nc2ccc(Oc3ccc4ncc(-c5cnn(CC6(O)CCC6)c5)nc4c3Cl)cc2[nH]1` [Compound 146], the IC50 in test [1] was 20 to 100 nM; in test [2], at least 400 nM; in test [3], 20 to 100 nM; in test [4], 20 to 100 nM.
With `Cc1nc2ccc(Oc3ccc4ncc(-c5cnn(C6CCN(CC(F)(F)F)CC6)c5)nc4c3Cl)cc2[nH]1` [Compound 303], the IC50 in test [1] was 20 to 100 nM; in test [2], at least 400 nM; in test [3], 20 to 100 nM; in test [4] it was 20 to 100 nM.
Regarding `Cc1nc2ccc(Oc3ccc4ncc(-c5cnn(C6CN(C(F)(F)F)C6)c5)nc4c3Cl)cc2[nH]1` [Compound 200], the IC50 is 100 to 400 nM in test [1], at least 400 nM in test [2], 100 to 400 nM in test [3] and 100 to 400 nM in test [4].
On to `Cc1nc2ccc(Oc3ccc4ncc(-c5cnn(CC(C)(C)C#N)c5)nc4c3Cl)cc2[nH]1` [Compound 272], for which the 50% inhibitory concentration (IC50) in test [1] was 20 to 100 nM; in test [2] it was at least 400 nM; in test [3], 20 to 100 nM; in test [4], 20 to 100 nM.
